Data taken from paper PMC8546428, “Convergent olfactory trace amine-associated receptors detect biogenic polyamines with distinct motifs via a conserved binding site” (The Journal of Biological Chemistry, 2021).
Changes are numbered by the printed parent chain.

Assays:
mTAAR9 W7.40Y = molecular target: T1, mTAAR9 W7.40Y (Mus musculus, UniProt Q5QD04, W298Y); assay: CRE-luciferase reporter assay, mTAAR9 mutant in Hana3A; type: cell-based; conditions: read-out: EC50 (mean ± S.D., n = 3)
T1 construct: expressed in transfected cells; host or cells: Hana3A (HEK293-derived)
T1 sequence (Q5QD04 whole entry W298Y): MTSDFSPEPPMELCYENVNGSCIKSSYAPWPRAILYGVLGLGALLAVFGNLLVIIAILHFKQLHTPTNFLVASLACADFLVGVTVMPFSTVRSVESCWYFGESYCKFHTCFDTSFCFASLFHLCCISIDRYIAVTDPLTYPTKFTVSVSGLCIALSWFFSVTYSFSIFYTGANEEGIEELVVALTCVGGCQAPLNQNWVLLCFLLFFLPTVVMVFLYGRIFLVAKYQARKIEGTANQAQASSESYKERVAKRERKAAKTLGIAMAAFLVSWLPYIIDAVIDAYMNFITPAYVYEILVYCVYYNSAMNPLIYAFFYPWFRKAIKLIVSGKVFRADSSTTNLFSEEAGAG

mTAAR9 Y6.51W = molecular target: T2, mTAAR9 Y6.51W (Mus musculus, UniProt Q5QD04, Y274W); assay: as above; type: cell-based; conditions: read-out: EC50 (mean ± S.D., n = 3)
T2 construct: expressed in transfected cells; host or cells: Hana3A (HEK293-derived)
T2 sequence (Q5QD04 1-348 Y274W): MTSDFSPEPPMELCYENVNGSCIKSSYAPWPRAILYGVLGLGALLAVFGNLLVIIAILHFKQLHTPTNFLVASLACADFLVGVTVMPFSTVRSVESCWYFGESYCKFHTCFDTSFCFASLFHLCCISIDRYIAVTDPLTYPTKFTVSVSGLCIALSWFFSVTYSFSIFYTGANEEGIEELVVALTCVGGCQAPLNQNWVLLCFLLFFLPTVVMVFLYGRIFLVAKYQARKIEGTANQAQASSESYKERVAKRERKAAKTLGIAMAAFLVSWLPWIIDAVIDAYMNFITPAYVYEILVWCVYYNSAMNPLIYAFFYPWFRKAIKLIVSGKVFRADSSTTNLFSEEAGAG

sTAAR365 T7.42A [1] = molecular target: T3, sTAAR365 T7.42A (Petromyzon marinus, UniProt A0A678XMK4, T298A)
T3 sequence (A0A678XMK4 1-365 T298A): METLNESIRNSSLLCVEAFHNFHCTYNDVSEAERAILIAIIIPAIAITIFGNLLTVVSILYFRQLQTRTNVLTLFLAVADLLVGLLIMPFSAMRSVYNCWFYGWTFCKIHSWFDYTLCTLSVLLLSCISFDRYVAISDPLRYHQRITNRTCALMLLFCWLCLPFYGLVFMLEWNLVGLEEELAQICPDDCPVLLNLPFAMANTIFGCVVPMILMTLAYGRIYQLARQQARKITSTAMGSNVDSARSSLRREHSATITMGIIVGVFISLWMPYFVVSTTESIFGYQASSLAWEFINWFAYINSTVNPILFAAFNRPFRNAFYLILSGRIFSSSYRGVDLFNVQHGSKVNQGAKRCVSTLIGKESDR

mTAAR9 E7.36D = molecular target: T4, mTAAR9 E7.36D (Mus musculus, UniProt Q5QD04, E294D); assay: CRE-luciferase reporter assay, mTAAR9 mutant in Hana3A; type: cell-based; conditions: read-out: EC50 (mean ± S.D., n = 3)
T4 construct: expressed in transfected cells; host or cells: Hana3A (HEK293-derived)
T4 sequence (Q5QD04 1-348 E294D): T2 sequence (Q5QD04 1-348 Y274W) with W274Y, E294D

sTAAR365 Y7.43Q = sTAAR365 Y7.43Q (Petromyzon marinus, UniProt A0A678XMK4, Y299Q); assay: cell-based
Sequence of sTAAR365 Y7.43Q (A0A678XMK4 whole entry Y299Q): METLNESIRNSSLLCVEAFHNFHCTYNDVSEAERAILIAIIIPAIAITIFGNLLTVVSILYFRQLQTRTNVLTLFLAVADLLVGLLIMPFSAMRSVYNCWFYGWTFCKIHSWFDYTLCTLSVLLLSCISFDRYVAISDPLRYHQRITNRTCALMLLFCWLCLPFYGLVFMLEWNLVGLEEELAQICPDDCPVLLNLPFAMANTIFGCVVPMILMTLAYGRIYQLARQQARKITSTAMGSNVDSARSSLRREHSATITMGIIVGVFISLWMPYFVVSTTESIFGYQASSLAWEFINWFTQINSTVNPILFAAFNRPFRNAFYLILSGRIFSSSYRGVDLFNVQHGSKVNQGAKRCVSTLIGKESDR

sTAAR365 Y7.43A = sTAAR365 Y7.43A (Petromyzon marinus, UniProt A0A678XMK4, Y299A); assay: cell-based
Sequence of sTAAR365 Y7.43A (A0A678XMK4 whole entry Y299A): as the sequence (A0A678XMK4 whole entry Y299Q) above, with Q299A counted along it

sTAAR365 T7.42A [2] = molecular target: T3, sTAAR365 T7.42A; assay: cell-based
hamster TAAR9 = hamster TAAR9 (Mesocricetus auratus, UniProt A0A1U7R5X1); conditions: hamster TAAR9, ligand 1 mM, Fig. 1B
Sequence of hamster TAAR9 (A0A1U7R5X1 1-348): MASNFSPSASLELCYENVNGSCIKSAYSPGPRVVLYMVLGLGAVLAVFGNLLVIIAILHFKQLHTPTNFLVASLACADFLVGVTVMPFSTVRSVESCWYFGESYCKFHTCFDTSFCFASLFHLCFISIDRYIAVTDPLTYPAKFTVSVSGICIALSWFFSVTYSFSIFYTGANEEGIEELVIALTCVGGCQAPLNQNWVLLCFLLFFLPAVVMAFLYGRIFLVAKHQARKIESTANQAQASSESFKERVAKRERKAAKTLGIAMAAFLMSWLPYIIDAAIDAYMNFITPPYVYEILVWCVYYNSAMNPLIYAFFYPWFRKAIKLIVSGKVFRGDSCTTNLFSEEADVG
Protocol: (§1) We examined the response of TAAR9s from rat, human, hamster, and rabbit to the stimulation of 1 mM amines using a well-established cAMP response element (CRE)-driven luciferase reporter assay based on Golf-mediated cAMP signal transduction ([5], [24]). In addition to the four mTAAR9 ligands, we included putrescine, which is also a polyamine and precursor of spermine/spermidine biosynthesis.
(§2) Mammalian TAAR9 plasmids were transfected into Hana3A cells along with a cAMP-dependent luciferase reporter plasmid (CRE-Luc). Transfected cells were incubated with tested ligands, and luciferase activity was quantified with a […] substrate as a reporter for Golf-mediated TAAR activation. Luciferase activity was indicated by the luminescence value and normalized as a fold-increase over the response to the vehicle stimuli (mean ± S.D., n = 3). […] B, Hana3A cells expressing mouse, rat, human, cat, hamster, and rabbit TAAR9 were incubated with either vehicle or tested ligands (1 mM) and assayed for reporter activity. C, concentration-dependent luciferase activity in Hana3A cells expressing mouse, rat, and cat TAAR9 receptors stimulated with cadaverine, spermidine, and spermine.
(§3) The firefly luciferase and renilla luciferase activity was measured with a BioTek microplate reader following manufacturer’s instructions.

rabbit TAAR9 = rabbit TAAR9 (Oryctolagus cuniculus, UniProt G1SUU9); conditions: rabbit TAAR9, ligand 1 mM, Fig. 1B
Sequence of rabbit TAAR9 (G1SUU9 1-348): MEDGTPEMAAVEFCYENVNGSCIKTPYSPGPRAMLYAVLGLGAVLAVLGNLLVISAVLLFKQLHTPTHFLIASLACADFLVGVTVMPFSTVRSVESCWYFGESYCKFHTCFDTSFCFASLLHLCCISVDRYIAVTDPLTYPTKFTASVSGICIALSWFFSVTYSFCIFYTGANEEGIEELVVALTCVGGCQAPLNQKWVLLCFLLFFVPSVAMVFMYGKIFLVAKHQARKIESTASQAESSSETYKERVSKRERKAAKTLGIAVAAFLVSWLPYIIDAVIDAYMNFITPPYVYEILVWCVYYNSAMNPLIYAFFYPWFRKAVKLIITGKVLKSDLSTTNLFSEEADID
Protocol: as §1, §2, §3

Cat TAAR9 = conditions: cat TAAR9, ligand 1 mM, Fig. 1B
Protocol: as §1, §2, §3

human TAAR9 = human TAAR9 (Homo sapiens, UniProt Q96RI9); conditions: human TAAR9, ligand 1 mM, Fig. 1B
Sequence of human TAAR9 (Q96RI9 whole entry): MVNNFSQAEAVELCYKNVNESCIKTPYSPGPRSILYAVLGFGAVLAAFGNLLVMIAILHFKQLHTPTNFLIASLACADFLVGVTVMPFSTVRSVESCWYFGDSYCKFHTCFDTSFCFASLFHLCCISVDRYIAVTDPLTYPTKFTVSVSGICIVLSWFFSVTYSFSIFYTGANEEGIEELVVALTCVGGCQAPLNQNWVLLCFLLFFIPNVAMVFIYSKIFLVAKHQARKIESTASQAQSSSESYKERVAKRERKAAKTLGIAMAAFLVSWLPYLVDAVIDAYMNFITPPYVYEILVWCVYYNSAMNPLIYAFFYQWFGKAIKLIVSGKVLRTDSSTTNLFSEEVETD
Protocol: as §1, §2, §3

sTAAR365 Y6.51L = molecular target: T5, sTAAR365 Y6.51L (Petromyzon marinus, UniProt A0A678XMK4, Y272L); conditions: HEK293T, cAMP production
T5 sequence (A0A678XMK4 1-365 Y272L): T3 sequence (A0A678XMK4 1-365 T298A) with Y272L, A298T

sTAAR365 Y6.51A = assay: cAMP TR-FRET assay, sTAAR365 mutant in HEK293T; type: cell-based, sea lamprey; conditions: cAMP production
Source text: All mutants were verified by DNA sequencing.

## NCCCCCN [cadaverine]
mTAAR9 W7.40Y
  EC50: 28 ± 8 µM
mTAAR9 Y6.51W
  EC50: > 1000 µM
sTAAR365 T7.42A [1]
  increase of EC50 vs wild-type sTAAR365: over three
mTAAR9 E7.36D
  EC50: > 1000 µM
sTAAR365 Y7.43Q
  EC50: 7 ± 0.3 µM
sTAAR365 Y7.43A
  EC50: 144 ± 11 µM
sTAAR365 T7.42A [2]
  EC50: 31 ± 24 µM

## NCCCCN [putrescine]
Hamster TAAR9
  reporter activity (activation of TAAR9): not activated
Rabbit TAAR9
  reporter activity (activation of TAAR9): not activated
Cat TAAR9
  reporter activity (activation of TAAR9): not activated
Human TAAR9
  reporter activity (activation of TAAR9): not activated
sTAAR365 Y6.51L
  EC50 (mean ± S.D., n = 3): loss
sTAAR365 Y6.51A
  EC50 (mean ± S.D., n = 3): loss
sTAAR365 T7.42A [2]
  EC50: > 500 µM
